Laboratory results taken from US20250042926A1, “THERAPEUTIC COMPOUNDS FOR HIV” (priority 2023, published 2025).

Format: physicochemical
Details: kinetic solubility from DMSO stock, 1.0% DMSO, 24-hour incubation at ambient temperature, filtrate quantified by CLND
Protocol: 2. Kinetic Solubility Analysis (CLND: Total Chemiluminescent Nitrogen Determination)
The final DMSO Concentration is 1.0% and maximum theoretical compound concentration is […] (assuming stock concentration of 10 mM). The filter plate is sealed. Following 24-hour incubation at ambient temperature (21.7-23.8° C.), the samples are vacuum filtered, and the filtrates are collected in a 96 well polypropylene plate for analysis. The collection plate is sealed for analysis.
Filtrates are injected into the nitrogen detector for quantification on Analiza's Automated Discovery Workstation. The equimolar nitrogen response of the detector is calibrated using standards which span the dynamic range of the instrument from 0.08 to 4500 μg/ml nitrogen. The filtrates are quantified with respect to this calibration curve. The calculated solubility values are corrected for background nitrogen present in the DMSO, and the media used to prepare the samples. The 1×PBS buffer (pH 7.4) is prepared by adding 50 mL of phosphate buffered saline solution 10×, PBS (Fisher Bioreagent part number BP399-500) to approximately 450 mL HPLC grade H2O. The volume of the solution is then adjusted to 500 mL for a total dilution factor of 1:10 and a final PBS concentration of 1X.

## Cc1cc(CC(=O)N[C@@H](CC(=O)O)C(=O)O)c(C(C)(C)CC(=O)N(c2nn(C)c3c(-n4c([C@H](Cc5cc(F)cc(F)c5)NC(=O)Cn5nc(C(F)F)c6c5C(F)(F)[C@@H]5C[C@H]65)nc5cc(-c6cccc(C(F)(F)F)n6)ccc5c4=O)ccc(Cl)c23)S(C)(=O)=O)c(OP(=O)(O)O)c1 [Compound 5, (2-(2-(4-(N-(4-Chloro-7-(2-((S)-1-(2-((3bS,4aR)-3-(difluoromethyl)-5,5-difluoro-3b,4,4a,5-tetrahydro-1H-cyclopropa[3,4]cyclopenta[1,2-c]pyrazol-1-yl)acetamido)-2-(3,5-difluorophenyl)ethyl)-4-oxo-7-(6-(trifluoromethyl)pyridin-2-yl)quinazolin-3(411)-yl)-1-methyl-1H-indazol-3-yl)methylsulfonamido)-2-methyl-4-oxobutan-2-yl)-5-methyl-3-(phosphonooxy)phenyl)acetyl)-L-aspartic acid]
pH 2 (medium 0.1N HCl)
  pH 2 Solubility (μM): 1.1 μM
pH 7 (medium 1×PBS buffer pH 7.4)
  pH 7 Solubility (μM): 76 μM
